Earlier results as cited in patent US9561225B2, “Pharmaceutical formulation containing opioid agonist, opioid antagonist and gelling agent” (Purdue Pharma L.P., priority 2001, dated 2017).

What was measured:
[1] = after oral administration
[2] = test system: morphine-like opioid agonist / heroin effects

C[C@H]1[C@H]2Cc3ccc(O)cc3[C@]1(C)CCN2CC1CC1 [cyclazocine]
duration of action [1]: ~24 h

C=CCN1CC[C@]23c4c5ccc(O)c4O[C@H]2C(=O)CC[C@@]3(O)[C@H]1C5 [naloxone]
block of the effect of 25 mg of heroin ([2]; 1 mg intravenously): completely block | effect on morphine-like opioid agonist effects ([2]; 0.4-0.8 mg intramuscularly or intravenously in man): prevent or promptly reverse the effects of morphine-like opioid agonist

O=C1CC[C@@]2(O)[C@H]3Cc4ccc(O)c5c4[C@@]2(CCN3CC2CC2)[C@H]1O5 [naltrexone]
duration of action [1]: ~24 h | time of absorption (following oral administration): ≤ 1 h | protein binding (in vivo): approximately 21%
